Read-outs that look alike come from different tables or passages of the source.
Assays:
[1] = biological target: T1, N-terminally FLAG-tagged PARP2 (amino acids 1-583) (Homo sapiens, UniProt Q9UGN5); experiment: PARP2 probe displacement HTRF assay; assay type: binding; conditions: binned Kd
T1 construct: N-terminally FLAG-tagged PARP2 (amino acids 1-583)
Protocol: Data analysis was performed identical as for PARP1.

[2] = biological target: T2, PARP1 (Homo sapiens, UniProt P09874); experiment: NanoBRET cellular target occupancy assay, PARP1; assay type: cell-based; conditions: for Kd: HEK293 cells transiently transfected with PARP1-NanoLuc fusion, tracer 11 nM, 2 hours at 37° C., Kd by Cheng-Prussoff; for Selectivity: NanoBRET, PARP1 over PARP2, Kd (PARP2)/Kd (PARP1)
T2 construct: host or cells: HEK293
T2 sequence (P09874 whole entry, the tested form may be a part): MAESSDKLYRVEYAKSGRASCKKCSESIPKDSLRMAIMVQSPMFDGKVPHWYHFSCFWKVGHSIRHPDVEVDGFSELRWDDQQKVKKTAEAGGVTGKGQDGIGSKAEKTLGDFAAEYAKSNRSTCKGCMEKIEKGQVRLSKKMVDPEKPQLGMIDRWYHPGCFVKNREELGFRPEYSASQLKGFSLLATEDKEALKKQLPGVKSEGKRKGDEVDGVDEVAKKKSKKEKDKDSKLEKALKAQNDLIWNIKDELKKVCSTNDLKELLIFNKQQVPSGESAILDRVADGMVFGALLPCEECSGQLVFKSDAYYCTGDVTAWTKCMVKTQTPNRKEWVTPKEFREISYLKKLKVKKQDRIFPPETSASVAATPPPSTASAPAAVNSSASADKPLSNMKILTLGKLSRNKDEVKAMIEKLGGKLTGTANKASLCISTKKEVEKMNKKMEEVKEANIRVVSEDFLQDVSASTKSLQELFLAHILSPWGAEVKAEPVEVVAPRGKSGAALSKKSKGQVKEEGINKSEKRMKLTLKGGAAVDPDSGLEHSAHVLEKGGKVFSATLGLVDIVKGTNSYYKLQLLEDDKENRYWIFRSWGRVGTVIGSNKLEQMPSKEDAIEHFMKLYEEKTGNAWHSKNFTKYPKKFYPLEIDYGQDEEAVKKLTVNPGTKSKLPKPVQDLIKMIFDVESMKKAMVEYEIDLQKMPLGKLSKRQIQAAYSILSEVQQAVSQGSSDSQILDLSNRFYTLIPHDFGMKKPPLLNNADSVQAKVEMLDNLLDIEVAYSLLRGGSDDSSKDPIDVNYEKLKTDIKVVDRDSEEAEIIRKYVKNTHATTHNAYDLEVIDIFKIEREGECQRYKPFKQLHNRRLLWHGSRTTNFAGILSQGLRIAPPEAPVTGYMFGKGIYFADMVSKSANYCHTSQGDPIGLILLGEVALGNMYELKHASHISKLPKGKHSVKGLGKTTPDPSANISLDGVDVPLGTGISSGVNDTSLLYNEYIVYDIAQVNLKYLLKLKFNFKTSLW

[3] = biological target: T3, PARP2 (Homo sapiens, UniProt Q9UGN5); experiment: NanoBRET cellular target occupancy assay, PARP2; assay type: cell-based; conditions: HEK293 cells transiently transfected with PARP2-NanoLuc fusion; tracer 2 nM; 2 hours at 37° C.; Kd by Cheng-Prussoff
T3 construct: host or cells: HEK293
T3 sequence (Q9UGN5 whole entry, the tested form may be a part): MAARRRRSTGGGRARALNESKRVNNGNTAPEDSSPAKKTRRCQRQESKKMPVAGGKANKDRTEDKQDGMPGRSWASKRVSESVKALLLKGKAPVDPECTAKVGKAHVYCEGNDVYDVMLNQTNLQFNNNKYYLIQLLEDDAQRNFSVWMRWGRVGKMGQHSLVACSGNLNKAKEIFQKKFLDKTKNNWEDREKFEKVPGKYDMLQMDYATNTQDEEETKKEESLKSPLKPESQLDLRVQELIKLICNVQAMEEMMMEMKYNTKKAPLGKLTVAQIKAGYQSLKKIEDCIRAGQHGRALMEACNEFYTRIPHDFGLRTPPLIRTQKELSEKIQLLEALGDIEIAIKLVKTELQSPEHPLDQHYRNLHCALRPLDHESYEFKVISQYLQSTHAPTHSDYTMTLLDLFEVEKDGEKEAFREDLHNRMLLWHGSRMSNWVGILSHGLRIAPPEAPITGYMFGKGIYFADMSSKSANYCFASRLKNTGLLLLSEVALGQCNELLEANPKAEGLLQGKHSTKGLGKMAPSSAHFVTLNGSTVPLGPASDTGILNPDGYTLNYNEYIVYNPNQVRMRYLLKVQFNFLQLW
Excerpt: NanoBRET Cellular Target Occupancy Assay

[4] = biological target: T4, full length N-terminally FLAG-tagged PARP1 (Homo sapiens, UniProt P09874); experiment: PARP1 probe displacement HTRF assay; conditions: for Selectivity: PARP1 over PARP2, ratio Kd (PARP2)/Kd (PARP1); for Kd: binned Kd
T4 sequence (P09874 whole entry): as the sequence (P09874 whole entry, the tested form may be a part) above

[5] = biological target: T4, full length N-terminally FLAG-tagged PARP1; experiment: PARP1 biochemical DELFIA assay (auto-PARylation); set-up: recombinant full length human N-terminally FLAG-tagged PARP1
[6] = read-out: PARP1 HTRF, PARP1 probe displacement HTRF
[7] = binned IC50, PARP1 biochemical DELFIA assay
[8] = PARP1 HTRF, probe displacement HTRF
[9] = binned IC50, biochemical auto-PARylation assay
[10] = read-out: PARP1 HTRF, probe displacement HTRF
[11] = PARP1 HTRF, PARP1 probe displacement HTRF

T1 sequence (Q9UGN5 whole entry, the tested form may be a part): as the sequence (Q9UGN5 whole entry, the tested form may be a part) above

Kd ([1]; PARP2 probe displacement HTRF) [nM]	Kd [2] [nM]	Kd [3] [nM]	Kd [4, 6] [nM]	IC50 [5, 7] [nM]	Kd ([1]; probe displacement HTRF) [nM]	Kd [4, 8] [nM]	IC50 [5, 9] [nM]	Kd [4, 10] [nM]	Kd [4, 11] [nM]	Compound	Selectivity [2]	Selectivity ([4]; probe displacement HTRF)
< 10	< 10	10 to 100	< 10	< 10						CNC(=O)c1ccc(N2CCC(N3CCC(c4nc5c(c(C(F)(F)F)cn5C)c(=O)[nH]4)C3)CC2)cn1 (racemic) [Compound 170rac]	+ (+ indicates a value of 10 to less than 50)	− (− indicates a value of less than 10)
	< 10	1000 to 10000			100 to 1000	< 10	< 10			CNC(=O)c1ccc(N2CCC(N3CC4(c5nc6ccc(F)cc6c(=O)[nH]5)CC3C4)CC2)c(F)n1 [Compound 259, 6-fluoro-5-(4-(4-(6-fluoro-4-oxo-3,4-dihydroquinazolin-2-yl)-2-azabicyclo[2.1.1]hexan-2-yl)piperidin-1-yl)-N-methylpicolinamide]	+++ (+++ indicate a value of at least 100)	+++ (+++ indicate a value of at least 100)
10 to 100	< 10	100 to 1000	< 10	< 10						CNC(=O)c1ccc(N2CCC(N3CCC(c4cc5ccc(Cl)cc5c(=O)[nH]4)C3)CC2)cn1 (single isomer, unassigned) [Compound 129b]	+++ (+++ indicate a value of at least 100)	+++ (+++ indicate a value of at least 100)
< 10	10 to 100	100 to 1000	< 10	< 10						CNC(=O)c1ccc(N2CCC(N3CCC(c4nc5[nH]cc(C(F)(F)F)c5c(=O)[nH]4)C3)CC2)cn1 (racemic) [Compound 150rac]	+ (+ indicates a value of 10 to less than 50)	− (− indicates a value of less than 10)
	< 10	100 to 1000			100 to 1000		< 10	< 10		CCc1ccc(C2CCN(C3CCN(c4ccc(C(=O)NCC(F)F)nc4)CC3)C2)[nH]c1=O (single isomer, unassigned) [Compound 354b]	+++ (+++ indicate a value of at least 100)	+++ (+++ indicate a value of at least 100)
	< 10	1000 to 10000			100 to 1000	< 10	< 10			CNC(=O)c1ccc(N2CCC(N3CCC(c4cc5ncc(F)cc5c(=O)[nH]4)C3)CC2)c(F)n1 (racemic) [Compound 324rac, 6-fluoro-5-(4-(3-(3-fluoro-5-oxo-5,6-dihydro-1,6-naphthyridin-7-yl)pyrrolidin-1-yl)piperidin-1-yl)-N-methylpicolinamide]	+++ (+++ indicate a value of at least 100)	+++ (+++ indicate a value of at least 100)
10 to 100	< 10	100 to 1000	< 10	< 10						CNC(=O)c1ccc(N2CCC(N3CCC(c4cc5cccc(F)c5c(=O)[nH]4)C3)CC2)cn1 (single isomer, unassigned) [Compound 136b, 5-{4-[3-(8-fluoro-1-oxo-2H-isoquinolin-3-yl)pyrrolidin-1-yl]piperidin-1-yl}-N-methylpyridine-2-carboxamide]	+++ (+++ indicate a value of at least 100)	+++ (+++ indicate a value of at least 100)
100 to 1000	< 10	> 10000		< 10					< 10	CCc1ccc(C2CCN(C3CCN(c4ccc(C(=O)NC)nc4F)CC3)C2)[nH]c1=O (single isomer, unassigned) [Compound 151a, 5-(4-(3-(5-ethyl-6-oxo-1,6-dihydropyridin-2-yl)pyrrolidin-1-yl)piperidin-1-yl)-6-fluoro-N-methylpicolinamide]	+++ (+++ indicate a value of at least 100)	+++ (+++ indicate a value of at least 100)
100 to 1000	< 10	100 to 1000	< 10	< 10						CNC(=O)c1ccc(N2CCC(N3CCC(c4cc5cccc(F)c5c(=O)[nH]4)C3)CC2)c(F)n1 (single isomer, unassigned) [Compound 184b, 6-fluoro-5-[4-[3-(8-fluoro-1-oxo-2H-isoquinolin-3-yl)pyrrolidin-1-yl]piperidin-1-yl]-N-methylpyridine-2-carboxamide]	+++ (+++ indicate a value of at least 100)	+++ (+++ indicate a value of at least 100)
1000 to 10000	< 10	1000 to 10000		< 10					< 10	CNC(=O)c1ccc(N2CCC(N3CC4(c5nc6ccccc6c(=O)[nH]5)CC3C4)CC2)cn1 [Compound 192, N-methyl-5-(4-(4-(4-oxo-3,4-dihydroquinazolin-2-yl)-2-azabicyclo[2.1.1]hexan-2-yl)piperidin-1-yl)picolinamide]	+++ (+++ indicate a value of at least 100)	+++ (+++ indicate a value of at least 100)
	< 10	> 10000			1000 to 10000	< 10	< 10			CNC(=O)c1ccc(N2CCC(N3CC4(c5nc6ccccc6c(=O)[nH]5)CC3C4)CC2)c(F)n1 [Compound 260]	+++ (+++ indicate a value of at least 100)	+++ (+++ indicate a value of at least 100)
100 to 1000	< 10	1000 to 10000	< 10	< 10						CNC(=O)c1ccc(N2CCC(N3CCC(c4cc5ccc(F)cc5c(=O)[nH]4)C3)CC2)c(F)n1 (racemic) [Compound 174rac]	+++ (+++ indicate a value of at least 100)	+++ (+++ indicate a value of at least 100)
	< 10	1000 to 10000			1000 to 10000		< 10	< 10		CCc1ccc(C2CCN(C3CCN(c4ccc(C(=O)NC)nc4Cl)CC3)C2)[nH]c1=O (single isomer, unassigned) [Compound 239b]	+++ (+++ indicate a value of at least 100)	+++ (+++ indicate a value of at least 100)
	< 10	> 10000			> 10000		< 10	< 10		CNC(=O)c1ccc(N2CCC(N3CCC(c4cc5c(F)ccc(F)c5c(=O)[nH]4)C3)CC2)c(F)n1 (single isomer, unassigned) [Compound 323a]	+++ (+++ indicate a value of at least 100)	+++ (+++ indicate a value of at least 100)
	< 10	100 to 1000			10 to 100		< 10	< 10		CNC(=O)c1ccc(N2CCC(N3CCC(c4cc5c(F)ccc(F)c5c(=O)[nH]4)C3)CC2)c(F)n1 (single isomer, unassigned) [Compound 323b]	+++ (+++ indicate a value of at least 100)	+++ (+++ indicate a value of at least 100)
100 to 1000	< 10	1000 to 10000	< 10	< 10						CNC(=O)c1ccc(N2CCC(N3CCC(c4cc5ccc(F)cc5c(=O)[nH]4)C3)CC2)c(Cl)n1 (racemic) [Compound 175rac]	+++ (+++ indicate a value of at least 100)	+++ (+++ indicate a value of at least 100)
100 to 1000	< 10	1000 to 10000	< 10	< 10						CNC(=O)c1ccc(N2CCC(N3CCC(c4cc5ccc(F)cc5c(=O)[nH]4)C3)CC2)c(F)n1 (single isomer, unassigned) [Compound 174a]	+++ (+++ indicate a value of at least 100)	+++ (+++ indicate a value of at least 100)
	< 10	100 to 1000			100 to 1000		< 10	< 10		N#Cc1ccc(N2CCC(N3CCC(c4cc5cccc(F)c5c(=O)[nH]4)C3)CC2)cn1 (single isomer, unassigned) [Compound 316a]	+++ (+++ indicate a value of at least 100)	+++ (+++ indicate a value of at least 100)
10 to 100	< 10	100 to 1000	< 10	< 10						CNC(=O)c1ccc(N2CCC(N3CCC(c4cc5c(Cl)cccc5c(=O)[nH]4)C3)CC2)cn1 (single isomer, unassigned) [Compound 137b]	+++ (+++ indicate a value of at least 100)	+ (+ indicates a value of 10 to less than 50)
< 10	< 10	10 to 100	< 10	< 10						CNC(=O)c1ccc(N2CCC(N3CCC(c4nc5cccc(C(F)(F)F)c5c(=O)[nH]4)C3)CC2)cn1 (single isomer, unassigned) [Compound 86b]	+ (+ indicates a value of 10 to less than 50)	+ (+ indicates a value of 10 to less than 50)
